Laboratory results reported in US12569473B2, “Methods to treat respiratory infection utilizing castanospermine analogs” (60 Degrees Pharmaceuticals, Inc., priority 2022, dated 2026).
Where a name gives a salt, the structure may show the parent alone.

Columns and labels:
[1] = Cytotoxicity, neutral red assay, MA-104 cells; assay type: cell-based; settings: African green monkey, MA-104 cells (embryonic African green monkey kidney), compounds tested at 0.3, 3, 30 and 300 microM, unit inferred
Description: (§1) The efficacy of celgosivir and castanospermine against RSV and human rhinovirus-14 was assessed in vitro. For RSV studies, embryonic African green monkey kidney cells (MA-104) were grown in minimal essential medium (MEM) supplemented with 0.1% NaHCO3 and 10% fetal bovine serum. When performing antiviral assays, serum was reduced to 2% and […] gentamicin was added to the medium. RSV strain A2 was used for the studies. For rhinovirus studies, the HeLa Ohio cell line was used in place of MA-104 cells.
(§2) CPE inhibition assays with visual quantification of antiviral activity and cytotoxicity were performed as described by Sidwell and Huffman (1971) with slight modifications. Sidwell, R. W. and Huffman, J. H. (1971) Use of disposable micro-tissue culture plates for antiviral and interferon induction studies. Appl. Microbiol. 22, […]. […] All compounds were assayed for virus inhibition in quadruplicate and for cytotoxicity in duplicate. For rhinovirus studies, Pirodavir was applied at a concentration of 0.001-1 μg/ml as the positive control compound. For RSV studies, the positive control compound was Ribavirin applied at a concentration of 0.5-500 μg/ml. For each compound, two wells were set aside as uninfected, untreated cell controls per test and four wells per test received virus only and represented controls for virus replication. […] A selective index (S.I.) was calculated for each compound (SI.=(IC50)/(EC50)).
(§3) Neutral red assay of CPE inhibition and cytotoxicity was performed by a modified method as described by Cavenaugh et al. (1990). […] Briefly, medium was removed from each well of a plate scored for CPE from the visual CPE inhibition assay, 0.2 ml of neutral red (0.034% in PSS) was added to each of the wells of that plate and the plate incubated for 2 h at 37° C. in the dark. […] Absorbances at 540 and 450 nm were read with a microplate reader (Bio-Tek EL 1309; Bio-Tek Instruments). […] Absorbance values were expressed as percentages of untreated controls and EC50 and IC50 values were calculated by regression analysis

[2] = cited from earlier work
[3] = test system: human rhinovirus-14; test: Neutral red assay of CPE inhibition, human rhinovirus-14; assay type: cell-based; settings: HeLa Ohio cells, compounds tested at 0.3, 3, 30 and 300 microM, unit inferred
Description: as §1, §2, §3

[4] = Pharmacokinetic simulations using CELADEN study parameters; design: species or system human; settings: linear extrapolation
Description: It is known that a steady state minimum castanospermine concentration of 400 nanograms/ml is associated with a 50 mg/kg BID dose in mice and that the antiviral effect of celgosivir in vivo seems to be correlated with the minimum steady state concentration of castanospermine (Watanabe et al). […] International Publication No. WO 2014/143907 discloses pharmacokinetic parameters for castanospermine for the CELADEN study. […] Extrapolating linearly, therefore, the minimum protective dose (achieving 400 nanograms/ml steady state minimum) is approximately 40 mg every 6 h, 75 mg every 8 h and 225 mg every 12 h. Further, WO 2014/143907 discloses that the CELADEN study regimen produce a steady state maximum castanospermine concentration of 5100 nanograms/ml. […] The FDA has published generic scaling factors to adjust mg/kg dosing in animals to mg/kg dosing in humans. Generically for mice, that scaling factor is 12. Therefore, 50 mg/kg BID is equivalent to a dose of 4.2 mg/kg BID in humans, which for a 60 kg human is equivalent to 250 mg. The same dose administered three or four times daily is equivalent to 167 mg and 125 mg and 2.8 and 2.1 mg/kg respectively. In a 60 kg human, the maximum single dose is 6.7 mg/kg, and the maximum daily dose is 10 mg/kg.

[5] = in theory, CELADEN study, confirming literature

In the case of CCCC(=O)O[C@H]1CN2CC[C@H](O)[C@@H]2[C@@H](O)[C@@H]1O [Celgosivir HCL], the CC50 at 6 days [1] is given as greater than 300 µM, the adverse event profile ([2]; CELADEN study regimen) is given as “higher incidence of GI effects, but not increased severity” and the “maximum daily dose as a total dose” value [2, 5] is given as no more than 600 mg. For the same molecule, the “maximum dose as a single dose” value [2, 5] was no more than 400 mg, the EC50 [3] was greater than 300 µM and the “minimum protective dose (achieving 400 nanograms/ml steady state minimum)” value (from here on “minimum protective dose”) ([4]; every 6 h) was “approximately 40 mg”. For the same molecule, the “minimum protective dose” value ([4]; every 8 h) was roughly 75 mg and the “minimum protective dose” value ([4]; every 12 h) was roughly 225 mg.
